Experimental data taken from PubChem BioAssay AID1208 (EPA DSSTox, 2008).
Activity calls are given as the source filed them.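 How the source made its calls: active means at least one rat sex group has a carcinogenic potency value and tumor site recorded; inconclusive means only rat studies were judged inadequate by the national testing program; inactive means no potency or tumor site, with negative rat experiments.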

System: rat chronic carcinogenicity bioassay, TD50
Assay: DSSTox (CPDBAS) Carcinogenic Potency Database Summary Rat Bioassay Results
Conditions: for outcome: TD50_Rat_Note: no positive results; for Potency: stronger effect = lower value
Outline: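 Chronic long-term rat cancer bioassays from literature and NCI/NTP, taking the most positive result per sex. TD50 in mmol converted to a 1–100 Activity Score from log10(1/TD50). Mixtures lacking TD50 scored 50.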

[1] = TargetSites_Rat_Female: no positive results
[2] = TD50_Rat_Note: TD50 is harmonic mean of more than one positive test, greater than ten-fold variation among TD50 values for positive res, TargetSites_Rat_Female: mammary gland
[3] = TargetSites_Rat_BothSexes: no positive results

`COC(=O)C(c1ccccc1)C1CCCCN1` (stereo not drawn) was tested, and the outcome [1] was “inactive; no positive results”.
With `OC[C@H]1O[C@@H]2O[C@H]3[C@H](O)[C@@H](O)[C@@H](O[C@H]4[C@H](O)[C@@H](O)[C@@H](O[C@H]5[C@H](O)[C@@H](O)[C@@H](O[C@H]6[C@H](O)[C@@H](O)[C@@H](O[C@H]7[C@H](O)[C@@H](O)[C@@H](O[C@H]8[C@H](O)[C@@H](O)[C@@H](O[C@H]1[C@H](O)[C@H]2O)O[C@@H]8CO)O[C@@H]7CO)O[C@@H]6CO)O[C@@H]5CO)O[C@@H]4CO)O[C@@H]3CO` the outcome [1] was “inactive; no positive results”.
`O=NN1CCSCC1` showed a Potency (TD50_Rat_Note: TD50 is harmonic mean of more than one positive test, TargetSites_Rat_Female: esophagus, oral cavity) of 5.39 mg/kg/day.
With `CCCCNC(=O)NS(=O)(=O)c1ccc(C)cc1` the outcome [1] was “inactive; no positive results”.
`CCNc1nc(Cl)nc(NC(C)C)n1` was tested, and the Potency (TD50_Rat_Note: TD50 is harmonic mean of more than one positive test, TargetSites_Rat_Female: hematopoietic system, mammary gland, uterus) was 36.6 mg/kg/day.
Work on `CN(CCc1ccccc1)N=O` yielded a Potency (TD50_Rat_Note: TD50 is harmonic mean of more than one positive test) of 0.00998 mg/kg/day.
In the case of `CCN(N=O)C(=O)NCC(C)=O`, the Potency (TD50_Rat_Note: TD50 is harmonic mean of more than one positive test, harmonic mean of TD50 includes a value for upper 99% confidence li, TargetSites_Rat_Female: large intestine, lung, mammary gland, nervous system, skin, thyroid gland, uterus) was 0.181 mg/kg/day.
For `C=CC`, the outcome [1] was “inactive; no positive results”.
In the case of `O=C1CCC(=O)O1`, the outcome [1] was “inactive; no positive results”.
Work on `CCCCCCCCCCCN(C)N=O` yielded a Potency of 2.37 mg/kg/day.
With `NCC(=O)O` the Potency (TargetSites_Rat_Female: kidney) was 25700 mg/kg/day.
`CCCCCN(N=O)C(N)=O` was tested, and the Potency (TD50_Rat_Note: TD50 is harmonic mean of more than one positive test, TargetSites_Rat_Female: hematopoietic system, lung, mammary gland, stomach, uterus) was 0.555 mg/kg/day.
For `Cc1ccc(N)c(C)c1`, the outcome was “inactive; no positive results”.
`Cc1ccc([N+](=O)[O-])cc1` gave a Potency (TargetSites_Rat_Female: clitoral gland) of 257 mg/kg/day.
With `CC(C)(Oc1ccc(C2CC2(Cl)Cl)cc1)C(=O)O` (stereo not drawn) the Potency (TD50_Rat_Note: TD50 is harmonic mean of more than one positive test, harmonic mean of TD50 includes a value for upper 99% confidence li, TargetSites_Rat_Female: stomach) was 1.97 mg/kg/day.
For `CC(=O)OC1CC(C)OC(C)O1` (stereo not drawn), the outcome [1] was “inactive; no positive results” and the Potency was 716 mg/kg/day.
In the case of `Clc1nc(Cl)nc(Nc2ccccc2Cl)n1`, the outcome [1] was “inactive; no positive results”.
`ClCc1cccnc1` showed a Potency [1] of 433 mg/kg/day.
`CCCCC/C=C\C/C=C\CCCCCCCC(=O)OC` was tested, and the outcome was “inactive; no positive results”.
With `CCN(CC)c1ccc(N=Nc2cc[n+]([O-])cc2)cc1` the Potency (TD50_Rat_Note: TD50 value is overestimated as upper 99% confidence limit from study with 100% tumor incidence but no lifetable, harmoni) was 1.63 mg/kg/day.
`CC(O)CN(C)N=O` (stereo not drawn) showed a Potency (TD50_Rat_Note: TD50 is harmonic mean of more than one positive test, TargetSites_Rat_Female: esophagus, nasal cavity) of 0.0463 mg/kg/day.
With `CC(Oc1c(Cl)cccc1Cl)C1=NCCN1` (stereo not drawn) the outcome [1] was “inactive; no positive results”.
For `ClC1=C(Cl)C(Cl)(Cl)C(Cl)=C1Cl`, the outcome [1] was “inactive; no positive results”.
Work on `CC(C)(C)NCC(O)c1ccc(O)c(CO)c1` (stereo not drawn) yielded a Potency (TD50_Rat_Note: TD50 is harmonic mean of more than one positive test, TargetSites_Rat_Female: mesovarium) of 40 mg/kg/day.
`NC(=O)/C(=C\c1ccc([N+](=O)[O-])o1)c1ccco1` showed a Potency [2] of 29.4 mg/kg/day.
Molecule `C#C[C@]1(O)CC[C@H]2[C@@H]3CCc4cc(O)ccc4[C@H]3CC[C@@]21C` has a Potency (TargetSites_Rat_Female: liver) of 0.2 mg/kg/day.
`Cc1cc(-c2ccc(N)c(C)c2)ccc1N` showed a Potency (TD50_Rat_Note: TD50 is harmonic mean of more than one positive test, TargetSites_Rat_Female: clitoral gland, ear Zymbals gland, large intestine, liver, lung, mammary gland, oral cavity, skin, small intestine) of 0.629 mg/kg/day.
`OCCOCCO` gave a Potency [1] of 1660 mg/kg/day.
In the case of `O=C(O)c1ccc(N=Nc2ccc(O)c(C(=O)O)c2)cc1`, the outcome [1] was “inactive; no positive results”.
In the case of `Cn1c(N)nc2c3cccnc3ccc21`, the Potency (TD50_Rat_Note: TD50 is harmonic mean of more than one positive test, greater than ten-fold variation among TD50 values for positive res, TargetSites_Rat_Female: clitoral gland, ear Zymbals gland, large intestine, liver, mammary gland, oral cavity, preputial gland, skin, small inte) was 0.812 mg/kg/day and the Potency (TargetSites_Rat_Female: ear Zymbals gland, liver, mammary gland, pancreas, urinary bladder, vascular system) was 3.29 mg/kg/day.
`S=[Se]` gave a Potency (TD50_Rat_Note: TD50 is harmonic mean of more than one positive test, TargetSites_Rat_Female: liver) of 8.01 mg/kg/day.
Molecule `CC(N)=S` has a Potency of 11.5 mg/kg/day.
With `N[C@@H](CS)C(=O)O` the outcome [1] was “inactive; no positive results”.
`O=[N+]([O-])c1ccc(Oc2ccc(Cl)cc2Cl)cc1` showed a Potency (TargetSites_Rat_Female: pancreas) of 420 mg/kg/day.
With `O=S(=O)(O)NC1CCCCC1` the outcome [3] was “inactive”.
`CSCCC(N)C(=O)O` (stereo not drawn) was tested, and the outcome was “inactive; no positive results”.
In the case of `O=C/C=C/c1ccccc1`, the outcome [1] was “inactive; no positive results”.
`CN(C#N)N=O` was tested, and the Potency (TargetSites_Rat_Female: stomach) was 0.48 mg/kg/day.
Work on `C=CC=C` yielded a Potency [2] of 261 mg/kg/day.
`OCC(O)CO` was tested, and the outcome [3] was “inactive”.
With `Nc1ccc(-c2ccc(N)cc2)cc1` the Potency (TargetSites_Rat_BothSexes: hematopoietic system, liver, mammary gland) was 1.73 mg/kg/day.
